Data reported in patent US7736909B2, “Methods and compositions comprising capture agents” (Board of Regents, the University of Texas System, priority 2003, dated 2010).
Residues, ends and D or L forms follow the SMILES beside them.

Target: T1, His6Gal80 (Saccharomyces cerevisiae, UniProt P04387)
T1 construct: His6 (N); made in house; host or cells: E. coli
T1 sequence (P04387 1-435): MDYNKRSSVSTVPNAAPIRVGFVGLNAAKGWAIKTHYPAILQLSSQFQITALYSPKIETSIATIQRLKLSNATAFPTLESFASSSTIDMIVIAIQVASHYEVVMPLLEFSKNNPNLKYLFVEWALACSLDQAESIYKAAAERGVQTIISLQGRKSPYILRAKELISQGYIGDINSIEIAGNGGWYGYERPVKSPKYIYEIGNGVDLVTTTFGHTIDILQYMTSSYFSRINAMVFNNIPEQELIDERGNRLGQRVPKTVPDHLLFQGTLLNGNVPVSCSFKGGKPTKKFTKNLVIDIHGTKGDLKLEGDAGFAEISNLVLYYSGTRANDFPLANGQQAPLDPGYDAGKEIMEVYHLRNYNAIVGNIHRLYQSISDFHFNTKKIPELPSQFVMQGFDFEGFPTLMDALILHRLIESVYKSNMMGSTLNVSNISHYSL
Assay: capturing dilute proteins with Tentagel-bound peptide
Format: binding
Conditions: peptide on Tentagel
Procedure: Capturing Dilute Proteins. Approximately 0.014 g of Tentagel beads displaying Gal80 binding peptide was blocked with 10% milk overnight at 4° C. The beads were divided equally into 7 tubes and incubated with 500 μL of buffer containing various amounts of His6Gal80 protein (5 to 400 ng) for 2 hours at 4° C. After washing four times with TBST buffer and twice with PBS, gel loading dye was added directly to the beads and the amount of bound His6Gal80 was determined as described above. A second gel containing known amounts of pure His6Gal80 was analyzed simultaneously and was used as a standard to quantitate the amount of His6Gal80 retained on the beads.
Efficient capture of dilute proteins. In all of the above examples, the protein was loaded onto the peptide-coated bead at a relatively high concentration (300 nM) prior to dilution. Since the concentration of most proteins of interest in a biological sample will be lower, it was of interest to evaluate the ability of a Tentagel-bound peptide to capture a dimeric protein from more dilute solutions. […] After washing, the bound protein was detected by boiling the beads in denaturing loading buffer followed by SDS-PAGE/western, blot analysis of the resulting supernatant. […] Further dilution of the protein in this assay format exceeded the sensitivity of the western blot. […]

`CSCC[C@H](NC(=O)[C@H](CC(=O)O)NC(=O)[C@H](CCC(N)=O)NC(=O)[C@H](CC(=O)O)NC(=O)[C@@H](N)Cc1ccc(O)cc1)C(=O)N[C@@H](CCC(N)=O)C(=O)N[C@@H](CC(N)=O)C(=O)N[C@@H](CC(N)=O)C(=O)N[C@H](C(=O)N[C@@H](Cc1ccccc1)C(=O)N[C@@H](CC(=O)O)C(=O)N[C@@H](CC(=O)O)C(=O)N[C@@H](CC(C)C)C(=O)N[C@@H](Cc1ccccc1)C(=O)N[C@@H](Cc1c[nH]c2ccccc12)C(=O)N[C@@H](CCCCN)C(=O)N[C@@H](CCC(=O)O)C(=O)NCC(=O)N[C@@H](Cc1c[nH]cn1)C(=O)N[C@@H](CCCNC(=N)N)C(=O)O)[C@@H](C)O` [Ga180bp] (H-YDQDMQNNTFDDLFWKEGHR-OH; N-terminus and C-terminus assumed) was tested, and the “dissociation constant of immobilized peptide for Gal80 dimer” value was “sub-nanomolar”.
